Laboratory results as given in patent US4374144A, “β-Lactam compounds, their preparation and use” (Beecham Group Limited, priority 1978, dated 1983).
Read-outs that look alike come from different tables or passages of the source.

Legend:
[1] = test system: Salmonella typhimurium CT10; test: MIC, DST agar + 10% horse blood; format: cell-based; details: Salmonella enterica
Method: (§1) The minimum inhibitory concentrations (MIC) of certain compounds of the invention were determined against a range of organisms.
(§2) of 0.001 ml of a 10^-2 dilution for Grampositive bacteria or a
(§3) 10^-4 dilution for Gramnegative bacteria).

[2] = test system: Proteus mirabilis C977; test: MIC, DST agar + 10% horse blood; format: cell-based
Method: as §1, §2, §3

[3] = test system: Staph. aureus Russell; test: MIC, DST agar + 10% horse blood; format: cell-based; details: Staphylococcus aureus
Method: as §1, §2, §3

[4] = test system: Bacillus subtilis A; test: MIC, DST agar + 10% horse blood; format: cell-based
Method: as §1, §2, §3

[5] = test system: E. coli 0111; test: MIC, DST agar + 10% horse blood; format: cell-based; details: Escherichia coli
Method: as §1, §2, §3

[6] = test system: Streptococcus pyogenes CN10; test: MIC, DST agar + 10% horse blood; format: cell-based
Method: as §1, §2, §3

[7] = test system: E. coli JT39; test: MIC, DST agar + 10% horse blood; format: cell-based; details: Escherichia coli
Method: as §1, §2, §3

[8] = test system: Klebsiella aerogenes A; test: MIC, DST agar + 10% horse blood; format: cell-based
Method: as §1, §2, §3

[9] = test system: Citrobacter freundii E8; test: MIC, DST agar + 10% horse blood; format: cell-based
Method: as §1, §2, §3

[10] = test system: Shigella sonnei MB11967; test: MIC, DST agar + 10% horse blood; format: cell-based
Method: as §1, §2, §3

[11] = test system: Staph. aureus Oxford; test: MIC, DST agar + 10% horse blood; format: cell-based; details: Staphylococcus aureus
Method: as §1, §2, §3

[12] = molecular target: T1, β-Lactamase from Enterobacter cloacae P99 (Enterobacter cloacae, UniProt P05364); test: β-Lactamase inhibition, chromogenic cephalosporin substrate; format: biochemical; details: 5 min preincubation, pH 7.3, 37° C., read-out: I50 (converted)
T1 construct: β-Lactamase from; endogenous in cells; host or cells: Enterobacter cloacae P99
T1 sequence (P05364 21-381): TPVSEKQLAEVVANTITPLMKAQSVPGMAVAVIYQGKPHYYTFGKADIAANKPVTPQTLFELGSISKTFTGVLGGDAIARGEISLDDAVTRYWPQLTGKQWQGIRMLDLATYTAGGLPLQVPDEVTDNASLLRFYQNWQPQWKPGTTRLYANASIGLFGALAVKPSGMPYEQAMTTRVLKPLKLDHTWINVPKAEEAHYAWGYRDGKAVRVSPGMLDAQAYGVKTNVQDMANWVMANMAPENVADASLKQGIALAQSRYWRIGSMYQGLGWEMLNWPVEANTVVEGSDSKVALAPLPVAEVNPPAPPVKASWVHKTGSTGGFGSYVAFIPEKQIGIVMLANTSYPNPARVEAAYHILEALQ
Method: (§4) I50 values for certain compounds of the invention against various β-lactamases were determined as follows:
(§5) Enzyme (0.2 ml) and inhibitor solution (10 μl) were incubated at pH 7.3, 37° C. for 5 minutes. Substrate (0.2 ml), which was the chromogenic cephalosporin described by O'Callaghan, Morris, Kirby and Shingler, Antimicrobial Agents and Chemotherapy, vol. 1, no. 4, 283-288 (1972), was added to give a final concentration of 250 μg/ml. After a further five minutes (37° C. at pH 7.3) the reaction was diluted with 1.6 ml of water and absorbance at 482 nm recorded instantly. The enzyme level was sufficient to hydrolyse 75% of the substrate in 5 minutes. Levels of inhibition were measured against a control reaction with no added inhibitor (10 μl buffer). I50 values quoted are the concentrations required to give 50% inhibition of substrate hydrolysis under the conditions described and are the concentrations of inhibitor present with the enzyme prior to the addition of the substrate.

[13] = molecular target: T2, β-Lactamase from Staphylococcus aureus Russell (Staphylococcus aureus, UniProt P00807); test: as above; format: biochemical; details: 5 min preincubation, pH 7.3, 37° C., read-out: I50 (converted)
T2 construct: β-Lactamase from; endogenous in cells; host or cells: Staphylococcus aureus Russell
T2 sequence (P00807 25-281): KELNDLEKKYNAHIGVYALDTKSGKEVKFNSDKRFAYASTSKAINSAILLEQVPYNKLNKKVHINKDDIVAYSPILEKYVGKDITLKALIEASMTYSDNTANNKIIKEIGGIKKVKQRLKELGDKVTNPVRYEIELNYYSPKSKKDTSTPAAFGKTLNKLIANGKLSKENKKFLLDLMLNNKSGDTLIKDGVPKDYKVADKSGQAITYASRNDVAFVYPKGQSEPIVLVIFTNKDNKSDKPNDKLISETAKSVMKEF
Method: as §4, §5

[14] = molecular target: T3, β-Lactamase from E. coli JT4 (Escherichia coli, UniProt P62593); test: as above; format: biochemical; details: 5 min preincubation, pH 7.3, 37° C., read-out: I50 (converted)
T3 construct: β-Lactamase from; endogenous in cells; host or cells: E. coli JT4
T3 sequence (P62593 24-286 limits assumed): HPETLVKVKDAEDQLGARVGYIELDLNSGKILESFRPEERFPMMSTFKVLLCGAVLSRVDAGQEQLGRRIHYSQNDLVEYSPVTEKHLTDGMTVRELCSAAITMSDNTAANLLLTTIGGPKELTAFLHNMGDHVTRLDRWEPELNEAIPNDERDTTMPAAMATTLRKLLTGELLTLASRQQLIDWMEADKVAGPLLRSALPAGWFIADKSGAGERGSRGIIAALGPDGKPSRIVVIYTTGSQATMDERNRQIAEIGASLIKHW
Method: as §4
(§6) Enzyme (0.2 ml) and inhibitor solution (10 μl) were incubated at pH 7.3, 37° C. for 5 minutes. Substrate (0.2 ml), which was the chromogenic cephalosporin described by O'Callaghan, Morris, Kirby and Shingler, Antimicrobial Agents and Chemotherapy, vol. 1, no. […] After a further five minutes (37° C. at pH 7.3) the reaction was diluted with 1.6 ml of water and absorbance at 482 nm recorded instantly. […] Levels of inhibition were measured against a control reaction with no added inhibitor (10 μl buffer).

[15] = molecular target: β-Lactamase from Klebsiella aerogenes E70; test: as above; format: biochemical; details: 5 min preincubation, pH 7.3, 37° C.
Method: as §4, §6

[16] = Salmonella typhimurium CT10, inoculum 0.001 ml of 10^-4 dilution, read-out: MIC
[17] = Proteus mirabilis C977, inoculum 0.001 ml of 10^-4 dilution, read-out: MIC
[18] = Staph. aureus Russell, inoculum 0.001 ml of 10^-2 dilution, read-out: MIC
[19] = E. coli 0111, inoculum 0.001 ml of 10^-4 dilution, read-out: MIC
[20] = Streptococcus pyogenes CN10, inoculum 0.001 ml of 10^-2 dilution, read-out: MIC
[21] = E. coli JT39, inoculum 0.001 ml of 10^-4 dilution, read-out: MIC
[22] = Klebsiella aerogenes A, inoculum 0.001 ml of 10^-4 dilution, read-out: MIC
[23] = Citrobacter freundii E8, inoculum 0.001 ml of 10^-4 dilution, read-out: MIC
[24] = Shigella sonnei MB11967, inoculum 0.001 ml of 10^-4 dilution, read-out: MIC
[25] = Staph. aureus Oxford, inoculum 0.001 ml of 10^-2 dilution, read-out: MIC

CC(=O)N/C=C\SC1=C(C(=O)O)N2C(=O)[C@@H]([C@H](C)OS(=O)(=O)O)[C@H]2C1 [Example 8, Disodium (5R, 6R)-3-[(Z)-2-acetamidoethenylthio]-6-[(S)-1-sulphatoethyl]-7-oxo-1-azabcicyclo[3.2.0]hept-2-ene-2-carboxylate]
MIC [1, 16]: 1.2 µg/mL | MIC [2, 17]: 1.2 µg/mL | MIC [3, 18]: 1.2 µg/mL | MIC ([4]; Bacillus subtilis A, inoculum 0.001 ml of 10^-2 dilution, read-out: MIC): 1.2 µg/mL | MIC [5, 19]: 1.2 µg/mL | MIC [6, 20]: 0.2 µg/mL | MIC [7, 21]: 2.5 µg/mL | MIC [8, 22]: 0.5 µg/mL | MIC [9, 23]: 1.2 µg/mL | MIC [10, 24]: 1.2 µg/mL | MIC [11, 25]: 1.2 µg/mL | IC50 [12]: 7.65 nM | IC50 [13]: 637 nM

CC(=O)N/C=C\SC1=C(C(=O)[O-])N2C(=O)[C@H]([C@H](C)O)[C@H]2C1.[Na+]
MIC ([1]; TYPHIMURIUM): 5 µg/mL | MIC ([2]; Proteus mirabilis, C977): 25 µg/mL | MIC [3]: 0.5 µg/mL | MIC ([4]; Bacillus subtilis): 5 µg/mL | MIC [5]; 0111: 5 µg/mL | MIC ([6]; Streptococcus pyogenes, CN10): 0.5 µg/mL | MIC ([7]; JT39): 10 µg/mL | MIC ([8]; Klebsiella aerogenes): 5 µg/mL | MIC ([9]; Citrobacter freundii, E8): 2.5 µg/mL | MIC ([10]; Shigella sonnei, MB11967): 10 µg/mL | MIC [11]: 0.5 µg/mL | IC50 [12]: 17.9 nM | IC50 [13]: ~8970 nM | IC50 [14]: 150 nM | I50 [15]: 0.1 µg/mL

CC(=O)N/C=C\SC1=C(C(=O)[O-])N2C(=O)[C@@H]([C@H](C)O)[C@H]2C1.[Na+] [Example 5, Sodium (5R, 6R)-3-[(Z)-2-acetamidoethenylthio]-6-[(S)-1-hydroxyethyl]-7-oxo-1-azabicyclo[3.2.0]hept-2-ene-2-carboxylate]
MIC ([1]; TYPHIMURIUM): 1 µg/mL | MIC ([2]; Proteus mirabilis, C977): 1 µg/mL | MIC [3]: 0.5 µg/mL | MIC ([4]; Bacillus subtilis): 0.1 µg/mL | MIC [5, 19]: 1 µg/mL | MIC ([6]; Streptococcus pyogenes, CN10): ≤ 0.02 µg/mL | MIC [7, 21]: 10 µg/mL | MIC ([8]; Klebsiella aerogenes): 1 µg/mL | MIC ([9]; Citrobacter freundii, E8): 1 µg/mL | MIC [10, 24]: 1 µg/mL | MIC [11]: 0.2 µg/mL

CC(=O)N/C=C\SC1=C(C(=O)OCc2ccc([N+](=O)[O-])cc2)N2C(=O)[C@H]([C@H](C)O)[C@H]2C1 [Example 2, p-Nitrobenzyl (5R, 6S)-3-[(Z)-2-acetamidoethenylthio]-6-[(S)-1-hydroxyethyl]-7-oxo-1-azabicyclo[3.2.0]hept-2-ene-2-carboxylate]
MIC [1, 16]: 2.5 µg/mL | MIC [2, 17]: 5 µg/mL | MIC [3, 18]: 1.2 µg/mL | MIC ([4]; Bacillus subtilis): 0.5 µg/mL | MIC [5, 19]: 2.5 µg/mL | MIC [6, 20]: ≤ 0.1 µg/mL | MIC [7, 21]: > 50 µg/mL | MIC [8, 22]: 2.5 µg/mL | MIC [9, 23]: 5 µg/mL | MIC [10, 24]: 2.5 µg/mL | MIC [11, 25]: 0.5 µg/mL
